From ChEMBL document CHEMBL4689842, “EUbOPEN Chemogenomics Library wave 1” (2021)

System: HEK-293T
Assay: Incucyte cell viability with HEK293T; also: filed as whole numbers so only -1 and 0 and 1 occur
Format: toxicity, cell-based
Details: human, 10 µM, compound concentration 10 uM
[1] = 0 h, replicate number 2, timepoint 0 hours
[2] = 6 h, replicate number 1, timepoint 6 hours
[3] = 12 h, replicate number 1, timepoint 12 hours
[4] = 18 h, replicate number 1, timepoint 18 hours
[5] = 24 h, replicate number 1, timepoint 24 hours
[6] = 0 h, replicate number 1, timepoint 0 hours
[7] = 6 h, replicate number 2, timepoint 6 hours
[8] = 12 h, replicate number 2, timepoint 12 hours
[9] = 18 h, replicate number 2, timepoint 18 hours
[10] = 24 h, replicate number 2, timepoint 24 hours

SMILES | Growth Rate [1] | Growth Rate [2] | Growth Rate [3] | Growth Rate [4] | Growth Rate [5] | Growth Rate [6] | Growth Rate [7] | Growth Rate [8] | Growth Rate [9] | Growth Rate [10]
Cc1cc(C)cc(-c2cnc3cc(Cl)c(-c4cccc(O)c4)cc3c2OCCCN)c1 | 1 | 0 | 0 | 0 | 0 |  |  |  |  | 
Cc1sc2c(c1C)C(c1ccc(Cl)cc1)=N[C@@H](CC(=O)OC(C)(C)C)c1nnc(C)n1-2 | 1 |  |  | 1 | 0 | 0 | 0 | 0 | 0 | 
COc1cc(-n2cnc3cc(-c4ccc(Cl)cc4)sc3c2=O)ccc1OCCN1CCCC1 | 1 | 0 | 0 | 0 | 0 |  |  |  |  | 
Cc1csc2c(N[C@@H](C)CN3CCN(S(=O)(=O)c4ccc(Cl)c(Cl)c4)CC3)ncnc12 |  | 0 | 0 | 0 | 0 | 0 |  |  |  | 
Cc1[nH]c(/C=C2\C(=O)Nc3ccc(S(=O)(=O)N(C)c4cccc(Cl)c4)cc32)c(C)c1C(=O)N1CCN(C)CC1 |  |  |  | 0 | 0 | 0 |  |  | 1 | 
CNc1nc(NCc2ccc(NS(C)(=O)=O)cc2Cl)cc(-c2ccccn2)n1 | 0 | 0 | 0 | 0 | 0 | 1 |  |  |  | 
CC(C)(O)CNc1ncc(-c2ccnc(Nc3ccnc(Cl)c3)n2)c(CC2CC2)n1 | 1 | 0 | 0 | 0 | 0 |  |  |  |  | 
Cn1cc(-c2[nH]c3cc(NC(=O)[C@H](N)C4CCCCC4)cc4c3c2C=NNC4=O)cn1 |  | 0 | 0 | 0 | 0 |  |  |  |  | 
C=CC(=O)Nc1cccc(C(=O)Nc2ccc(Nc3cc(-c4[nH]c(SC)nc4C)ccn3)cc2)c1 | 1 | 0 | 0 | 0 | 0 | 0 |  |  | 1 | 
OC1(c2ccc(Cl)cc2)CCN(Cc2c[nH]c3ccccc23)CC1 |  | 0 | 0 | 0 | 0 | 1 |  |  |  | 
CC(C)C(=O)Nc1n[nH]c2cc(-c3cccc(NS(=O)(=O)C4CC4)c3)ccc12 |  | 0 | 0 | 0 | 0 | 0 |  |  |  | 
CN1C(=O)c2sccc2N(C)c2nc(Nc3ccc(S(N)(=O)=O)cc3)ncc21 |  | 0 | 0 | 0 | 0 |  |  |  |  | 
CN(C)C(=O)/C(C#N)=C/c1ccc(-c2nc3cnc4[nH]ccc4c3n2C2CCCCC2)o1 |  |  |  |  |  | 0 |  |  |  | 1
C=CC(=O)Nc1ccc2ncnc(Nc3ccc(OCc4cccc(F)c4)c(Cl)c3)c2c1.Cc1ccc(S(=O)(=O)O)cc1 | 1 |  |  | 0 | 0 | 0 | 0 | 0 |  | 
COc1cc2nccc(Oc3ccc(NC(=O)Nc4cc(C)on4)c(Cl)c3)c2cc1OC.O | 0 | 0 | 0 | 0 | 0 |  |  |  |  | 
CN(C)CC#Cc1ccc(OCCCc2sc(N3CCc4cccc(C(=O)Nc5nc6ccccc6s5)c4C3)nc2C(=O)O)c(F)c1 [A-1155463] | 1 |  |  |  |  | 0 |  |  |  | 1
NC(=O)Nc1cc(-c2cccc(F)c2)sc1C(=O)N[C@H]1CCCNC1 [AZD-7762] | 1 | 0 | 0 | 0 | 0 | 0 |  |  |  | 
CN1CCCC(n2nc(Cc3ccc(Cl)cc3)c3ccccc3c2=O)CC1.Cl (configuration not stated) [AZELASTINE HYDROCHLORIDE] | 1 | 0 | 0 | 0 | 0 |  |  |  |  | 
CNCc1ccccc1-c1csc([C@H](C)Nc2nc(C)nc3cc(OC)c(OC)cc23)c1 [BAY-294] |  | 0 | 0 | 0 | 0 |  |  |  |  | 
CN(C)c1ncnc(-c2ccc3nc(Nc4cc(CN5CCN(C(=O)CC(F)(F)F)CC5)ccn4)[nH]c3c2)c1Cl [BAY-440] | 0 | 0 | 0 | 0 | 0 |  |  |  |  | 
COc1ccc(Oc2cc(NCCC(F)(F)F)c3ncc(-c4ccc(C(=O)NC5CC5)c(C)c4)n3n2)c(F)c1F [BAY-1217389] |  | 0 | 0 | 0 | 0 | 0 |  |  |  | 
Cc1c(-c2ccc(O)cc2)n(Cc2ccc(OCCN3CCCCCC3)cc2)c2ccc(O)cc12 [BAZEDOXIFENE] | 0 | 0 | 0 | 0 | 0 |  |  |  |  | 
CC(C)NCC(O)COc1ccc(CCOCC2CC2)cc1.Cl (configuration not stated) [BETAXOLOL HYDROCHLORIDE] | 0 | 0 | 0 | 0 | 0 |  | 1 |  |  | 

SMILES | Growth Rate [1] | Growth Rate [2] | Growth Rate [3] | Growth Rate [4] | Growth Rate [5] | Growth Rate [6] | Growth Rate [7] | Growth Rate [8] | Growth Rate [9] | Growth Rate [10]
CCOCCn1cc(C(=O)Nc2ccc(-n3nc(-c4cccnc4)cc3C(F)(F)F)cn2)ccc1=O [BI 1935] |  | 0 | 0 | 0 | 0 | 1 |  |  |  | 
C[C@@]1(C(=O)Nc2ccc(F)nc2)CCCN1c1nc(Nc2cc(C3CC3)n[nH]2)c2cccn2n1 [BMS-754807] |  | 0 | 0 | 0 | 0 |  |  |  |  | 
C=CC(=O)Nc1cc2c(Nc3ccc(F)c(Cl)c3)ncnc2cc1OCCCN1CCOCC1.Cl.Cl [CANERTINIB DIHYDROCHLORIDE] |  | 0 | 0 | 0 | 0 |  |  |  |  | 
CN(C)C(=O)N[C@H]1CC[C@H](CCN2CCN(c3cccc(Cl)c3Cl)CC2)CC1.Cl [CARIPRAZINE HYDROCHLORIDE] | 1 | 0 | 0 | 0 | 0 |  |  |  |  | 
C[C@@H](NCCCc1cccc(C(F)(F)F)c1)c1cccc2ccccc12.Cl [CINACALCET HYDROCHLORIDE] | 0 | 0 | 0 | 0 | 0 |  |  |  |  | 
CN1CCC[C@@H]1CCO[C@](C)(c1ccccc1)c1ccc(Cl)cc1.O=C(O)/C=C/C(=O)O [CLEMASTINE FUMARATE] | 1 | 0 | 0 | 0 | 0 |  |  |  |  | 
c1cn2cc(-c3ccc4cn[nH]c4c3)nc(Nc3ccc(N4CCOCC4)cc3)c2n1 [ENTOSPLETINIB] |  |  |  |  | 1 |  |  |  |  | 
Cn1cc(C2=C(c3cn(C4CCN(Cc5ccccn5)CC4)c4ccccc34)C(=O)NC2=O)c2ccccc21 [ENZASTAURIN] |  | 0 | 0 | 0 | 0 |  |  |  |  | 
O=C(NCCN1CCOCC1)c1ccc2c(c1)C(=O)c1ccc(Nc3ccc(F)c(NC(=O)c4ccccc4)c3)cc1CC2 [FS-694] | 0 | 0 | 0 | 0 | 0 |  |  |  |  | 
CC[C@H](C)C(=O)O[C@H]1C[C@@H](C)C=C2C=C[C@H](C)[C@H](CC[C@@H]3C[C@@H](O)CC(=O)O3)[C@H]21 [LOVASTATIN] |  | 1 | 0 | 0 | 0 | 0 |  | 1 |  | 
COc1ncc(-c2ccc3nccc(-c4ccnnc4)c3c2)cc1NS(=O)(=O)c1ccc(F)cc1F [OMIPALISIB] |  | 0 | 0 | 0 | 0 |  |  |  |  | 
CN1CCN(c2ccc(OC(F)(F)F)c(Nc3ncc4c(n3)-c3c(c(C(N)=O)nn3CCO)CC4)c2)CC1 [ONVANSERTIB] | 0 | 0 | 0 | 0 | 0 | 1 |  |  |  | 
CCN(CC)CCCCNc1ncc2cc(-c3cc(OC)cc(OC)c3)c(NC(=O)NC(C)(C)C)nc2n1 [PD-173074] |  | 0 | 0 | 0 | 0 | 1 |  |  |  | 
Cc1nc(Nc2n[nH]c3c2CN(C(=O)N[C@H](CN(C)C)c2ccccc2)C3(C)C)c2sccc2n1 [PF-03758309] |  | 0 | 0 | 0 | 0 |  |  |  |  | 
CN1CCN(CCOc2cc(OC3CCOCC3)c3c(Nc4c(Cl)ccc5c4OCO5)ncnc3c2)CC1 [SARACATINIB] |  | 0 | 0 | 0 | 0 |  |  |  |  | 
Cc1nc(-c2ccc(-c3ccc(C(=O)N4CCc5cc6c(cc54)C4(CCN(C)CC4)CO6)cc3)c(C)c2)no1 [SB-224289] | 0 | 0 | 0 | 0 | 0 |  |  |  |  | 
O=C1NCN(c2ccccc2)C12CCN(CCCOc1ccc(F)cc1)CC2 [SPIRAMIDE] |  | 0 | 0 | 0 | 0 | 0 |  |  |  | 
Nc1c(C(=O)NCc2ccc(C(=O)NCCCC3CCCCC3)cc2)cnn1-c1ccccc1 [SR-318] |  |  |  | 1 | 0 | 0 | 0 | 0 | 0 | 
O=C(NCCCC1CCCCC1)c1ccc(CNC(=O)c2cnn(-c3ccccc3)c2C(F)(F)F)cc1 [SR-321] | 1 | 0 | 0 | 0 | 0 | 0 |  |  |  | 
Cc1nc(-c2cn3c(n2)-c2ccc(-c4cnn(C(C)(C)C(N)=O)c4)cc2OCC3)n(C(C)C)n1 [TASELISIB] |  | 0 | 0 | 0 | 0 |  |  |  |  | 
COc1cccc([C@@H](C)NCCCc2ccccc2Cl)c1.Cl [TECALCET HYDROCHLORIDE] | 0 | 0 | 0 | 0 | 0 |  |  |  |  | 
Cl.N#Cc1ccc2[nH]cc(CCCCN3CCN(c4ccc5oc(C(N)=O)cc5c4)CC3)c2c1 [VILAZODONE HYDROCHLORIDE] |  | 0 | 0 | 0 | 0 | 0 |  |  |  | 
